Source: patent publication US20250154115A1, “ARYLBENZOISOXAZOLE COMPOUNDS AS IP6K AND IPMK INHIBITORS AND METHODS OF USE THEREOF” (THE UNIVERSITY OF NORTH CAROLINA AT CHAPEL HILL, priority 2022, published 2025)

How the values were obtained:
Assay type in all cases: biochemical
Conditions in all cases: enzyme-coupled assay; Table 4
IP6K1 = IP6K1 (Homo sapiens (Human), UniProt Q92551); test: Enzyme-coupled assay of IP6K1 activity (Dipp1-coupled, malachite green Pi release)
Experimental: (§1) […] The cells were disrupted using a constant cell disruption system (Constant Systems) under 20 kPsi.
(§2) Pi release was determined with a malachite green colorimetric assay.^45 Where indicated, TNP (Cayman Chemical) was added to the assays (FIG. 2A-E).

IPMK = IPMK (Homo sapiens (Human), UniProt Q8NFU5); test: Enzyme-coupled assay, IPMK IC50
IP6K2 = IP6K2 (Homo sapiens (Human), UniProt Q9UHH9); test: Enzyme-coupled assay of IP6K2 activity (Dipp1-coupled, malachite green Pi release)
Experimental: as §1, §2

Chain of IP6K1 (Q92551 whole entry): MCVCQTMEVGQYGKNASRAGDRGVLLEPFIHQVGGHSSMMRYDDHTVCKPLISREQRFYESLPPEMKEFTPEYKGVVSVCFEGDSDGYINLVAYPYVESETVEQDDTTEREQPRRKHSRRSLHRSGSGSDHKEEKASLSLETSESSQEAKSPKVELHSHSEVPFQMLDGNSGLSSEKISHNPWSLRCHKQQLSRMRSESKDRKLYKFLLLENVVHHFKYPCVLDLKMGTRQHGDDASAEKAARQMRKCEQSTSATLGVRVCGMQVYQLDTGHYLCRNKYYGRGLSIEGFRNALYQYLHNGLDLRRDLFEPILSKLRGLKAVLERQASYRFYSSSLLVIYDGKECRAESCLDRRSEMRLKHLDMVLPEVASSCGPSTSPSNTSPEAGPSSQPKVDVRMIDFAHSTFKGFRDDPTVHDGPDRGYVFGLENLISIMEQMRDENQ
Chain of IPMK (Q8NFU5 whole entry, species assumed): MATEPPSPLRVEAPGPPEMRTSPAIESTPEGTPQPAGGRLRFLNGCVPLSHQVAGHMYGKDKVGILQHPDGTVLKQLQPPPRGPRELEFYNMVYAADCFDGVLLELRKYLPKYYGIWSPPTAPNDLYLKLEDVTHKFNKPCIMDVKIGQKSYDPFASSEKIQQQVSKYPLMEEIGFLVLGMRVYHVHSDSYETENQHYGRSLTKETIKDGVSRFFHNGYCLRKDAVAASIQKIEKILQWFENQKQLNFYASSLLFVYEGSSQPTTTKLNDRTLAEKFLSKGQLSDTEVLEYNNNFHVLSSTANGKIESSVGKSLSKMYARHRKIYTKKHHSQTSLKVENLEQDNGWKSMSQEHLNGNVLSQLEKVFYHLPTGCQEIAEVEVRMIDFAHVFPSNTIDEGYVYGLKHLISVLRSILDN
Chain of IP6K2 (Q9UHH9 whole entry): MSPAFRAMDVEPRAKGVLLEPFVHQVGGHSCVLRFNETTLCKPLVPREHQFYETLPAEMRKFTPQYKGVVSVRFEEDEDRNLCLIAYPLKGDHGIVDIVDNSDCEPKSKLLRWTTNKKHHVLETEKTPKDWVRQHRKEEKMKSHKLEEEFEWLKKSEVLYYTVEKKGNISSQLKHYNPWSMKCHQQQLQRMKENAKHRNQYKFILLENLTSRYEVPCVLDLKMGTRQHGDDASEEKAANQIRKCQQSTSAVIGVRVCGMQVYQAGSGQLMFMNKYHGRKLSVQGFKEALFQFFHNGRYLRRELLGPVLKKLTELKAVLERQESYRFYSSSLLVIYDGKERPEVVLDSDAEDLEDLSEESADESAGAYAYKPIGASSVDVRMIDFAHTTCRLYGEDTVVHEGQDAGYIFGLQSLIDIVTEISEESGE

Structure (SMILES) | IC50 (IP6K1) [nM] | IC50 (IPMK) [nM] | IC50 (IP6K2) [nM]
CN1CCC(Oc2cccc(-c3onc4ccc(-c5nnn[nH]5)cc34)c2)CC1 [Compound 86] | 10 to 100 | 10 to 100 | 10 to 100
CC(C)N1CCC(Oc2cccc(-c3onc4ccc(-c5nnn[nH]5)cc34)c2)CC1 [Compound 87] | 10 to 100 | 10 to 100 | 10 to 100
c1cc(OC2CCN(CC3CC3)CC2)cc(-c2onc3ccc(-c4nnn[nH]4)cc23)c1 [Compound 88, 3-(3-((1-(cyclopropylmethyl)piperidin-4-yl)oxy)phenyl)-5-(1H-tetrazol-5-yl)benzo[c]isoxazole] | 10 to 100 | 10 to 100 | 100 to 1000
c1cc(OC2CNC2)cc(-c2onc3ccc(-c4nnn[nH]4)cc23)c1 [Compound 92] | 10 to 100 | – | 10 to 100
CC1(C(=O)N2CCC(Oc3cccc(-c4onc5ccc(-c6nnn[nH]6)cc45)c3)CC2)COC1 [Compound 93] | 100 to 1000 | – | 10 to 100
O=C(C1CCCC1)N1CCC(Oc2cccc(-c3onc4ccc(-c5nnn[nH]5)cc34)c2)CC1 [Compound 94] | 10 to 100 | – | 10 to 100
Nc1cccc(-c2ccc(-c3onc4ccc(-c5nnn[nH]5)cc34)cc2)c1 [Compound 95] | 10 to 100 | – | 10 to 100
CC(C)(C)OC(=O)Nc1cccc(-c2cccc(-c3onc4ccc(-c5nnn[nH]5)cc34)c2)c1 [Compound 96] | 10 to 100 | – | 10 to 100
Nc1cccc(-c2cccc(-c3onc4ccc(-c5nnn[nH]5)cc34)c2)c1 [Compound 97] | 10 to 100 | – | 10 to 100
O=C(Nc1ccc(-c2onc3ccc(-c4nnn[nH]4)cc23)cc1)C1CCCCC1 [Compound 98] | 100 to 1000 | – | –
O=C(Nc1ccc(-c2onc3ccc(-c4nnn[nH]4)cc23)cc1)C1CCNCC1 [Compound 99] | 100 to 1000 | – | –
O=C(Nc1ccc(-c2onc3ccc(-c4nnn[nH]4)cc23)cc1)[C@@H]1CCCN1 [Compound 100] | 100 to 1000 | – | –
O=C(Nc1ccc(-c2onc3ccc(-c4nnn[nH]4)cc23)cc1)C1CCNC1 (centres unmarked) [Compound 101] | 100 to 1000 | – | –
c1cc(-c2onc3ccc(-c4nnn[nH]4)cc23)cc(C2CCNCC2)c1 [Compound 104] | 100 to 1000 | – | –
CC(=O)N1CCC(c2cccc(-c3onc4ccc(-c5nnn[nH]5)cc34)c2)CC1 [Compound 106] | 10 to 100 | – | –
c1cc(-c2onc3ccc(-c4nnn[nH]4)cc23)cc(C2CCN(CC3CC3)CC2)c1 [Compound 107] | 10 to 100 | – | –

Structure (SMILES) | IC50 (IP6K1) [nM] | IC50 (IPMK) [nM] | IC50 (IP6K2) [nM]
CC1(C(=O)N2CCC(c3cccc(-c4onc5ccc(-c6nnn[nH]6)cc45)c3)CC2)COC1 [Compound 108] | 100 to 1000 | – | –
CC(C)C(=O)N1CCC(c2cccc(-c3onc4ccc(-c5nnn[nH]5)cc34)c2)CC1 [Compound 109] | 10 to 100 | – | –
O=C1CC(C(=O)N2CCC(c3cccc(-c4onc5ccc(-c6nnn[nH]6)cc45)c3)CC2)C1 [Compound 110] | 10 to 100 | – | –
O=C(C1CC1)N1CCC(c2cccc(-c3onc4ccc(-c5nnn[nH]5)cc34)c2)CC1 [Compound 111] | 10 to 100 | – | –
O=C(N1CCC(c2cccc(-c3onc4ccc(-c5nnn[nH]5)cc34)c2)CC1)C1(F)CC1 [Compound 112] | 10 to 100 | – | –
c1cc(-c2onc3ccc(-c4nnn[nH]4)cc23)cc(C2CCN(C3CC4(CCC4)C3)CC2)c1 [Compound 113] | 100 to 1000 | – | –
c1cc(-c2onc3ccc(-c4nnn[nH]4)cc23)cc(C2CCN(C3CCCC3)CC2)c1 [Compound 114] | 100 to 1000 | – | –
CC(C)(C)OC(=O)N1CC(C(=O)N2CCC(c3cccc(-c4onc5ccc(-c6nnn[nH]6)cc45)c3)CC2)C1 [Compound 115] | 100 to 1000 | – | –
CC(C)(C)OC(=O)N1CCCC1C(=O)N1CCC(c2cccc(-c3onc4ccc(-c5nnn[nH]5)cc34)c2)CC1 (centres unmarked) [Compound 116] | 100 to 1000 | – | –
c1cc2noc(-c3ccc(C4CCNCC4)cc3)c2cc1-c1nnn[nH]1 [Compound 117] | 100 to 1000 | – | –
c1cc2noc(-c3ccc(C4CCN(C5CCC5)CC4)cc3)c2cc1-c1nnn[nH]1 [Compound 118] | 10 to 100 | – | –
CC(=O)N1CCC(c2ccc(-c3onc4ccc(-c5nnn[nH]5)cc34)cc2)CC1 [Compound 119] | 100 to 1000 | – | –
CC(C)C(=O)N1CCC(c2ccc(-c3onc4ccc(-c5nnn[nH]5)cc34)cc2)CC1 [Compound 120] | 100 to 1000 | – | –
CC1(C(=O)N2CCC(c3ccc(-c4onc5ccc(-c6nnn[nH]6)cc45)cc3)CC2)COC1 [Compound 121] | 100 to 1000 | – | –
O=C(C1CC1)N1CCC(c2ccc(-c3onc4ccc(-c5nnn[nH]5)cc34)cc2)CC1 [Compound 122] | 100 to 1000 | – | –
O=C(N1CCC(c2ccc(-c3onc4ccc(-c5nnn[nH]5)cc34)cc2)CC1)C1(F)CC1 [Compound 123] | 100 to 1000 | – | –
